# Reference: patent publication US11160770B2, “Compounds, compositions and methods for treating oxidative DNA damage disorders” (Indiana University Research and Technology Corporation, priority 2011, dated 2021)
# Key:
# [1] = test system: sensory neuronal cultures; assay type: cell-based, rat
# Protocol: EXAMPLE. Cell Cultures. Neuronal cultures were prepared from adult male (150-175 g) Sprague-Dawley rats (Harlan, Indianapolis, Ind.) as described in the published literature. Briefly, hippocampal cells were dissociated using papain and mechanical agitation and separated by gradient centrifugation. The pellet of cells from a discontinuous gradient of Optiprep in L-15 media was washed then resuspended in 1 mL of growth media consisting of Neurobasal Medium supplemented with 0.5 mM L-glutamine, 2% B-27 Supplement minus AO, 50 mg/mL Penicillin-Streptomycin, and 5 ng/mL of Basic Fibroblast Growth Factor (BFGF). Approximately 60,000 cells were plated onto poly-D-lysine and laminin coated plates and grown for 6-14 days in 5% CO2 at 37° C. Growth medium was changed every other day. For sensory neuronal culture, cells were dissociated using collagenase and mechanical dissociation. Approximately 30,000 DRG cells were plated into each well of 12 well culture plates or onto Lab-Tek chamber slides all precoated with poly-D-lysine and laminin. The sensory neurons were maintained in F-12 media supplemented with 10% horse serum, 2 mM glutamine, 100 μg/mL normocin, 50 μg/mL penicillin, 50 μg/mL streptomycin, 50 μM 5-fluoro-2′-deoxyuridine, 150 μM uridine, and 30 ng/mL NGF in 3% CO2 at 37° C. Growth medium was changed every other day and the cells were used after 11-13 days of culture.
# EXAMPLE. Assay Methods. Sensory neuronal cultures grown on Lab-Tek microscope chamber slides were processed for immunofluorescence as previously published using a peripherin antibody (1:500) and HA antibody (1:500)[28]. Images were collected in red (peripherin), green (HA), and bright-field modes. A Zeiss LSM offline browser (R4.0: Carl Zeiss Inc.; Thornwood, N.Y.) was used to determine co-localization of peripherin and HA. For trypan blue exculsion, equal volume of 0.4% (w/v) Trypan blue to cell suspension were combined, mixed and scored under phase contrast microscope. […]
# EXAMPLE. […] The mean % of cells surviving 24 h after exposure to IR as measured by trypan blue exclusion was evaluated. […]
# [2] = test system: DRG cells; test: CGRP release from DRG cells following cisplatin treatment; assay type: cell-based, rat; settings: E3330 20 μM pretreatment 3 days, then cisplatin 10 μM 24 hours
# Protocol: EXAMPLE. CGRP. Release studies were performed on cells. Briefly, neuronal cultures were washed once with HEPES buffer consisting of 25 HEPES, 135 NaCl, 3.5 KCl, 2.5 CaCl2, 1 MgCl2, 3.3 d-glucose (each in mmol/L), and 0.1% bovine serum albumin (pH 7.4), maintained at 37° C., and then incubated for successive 10-min intervals with 0.4 mL of the same buffer in the absence or presence of drugs. Basal or resting release was determined by exposing the cells to HEPES buffer alone, whereas stimulated release was determined by exposing the cultures to 30 nmol/L capsaicin. Cells then were reexposed to HEPES buffer without drugs for one or two 10-min incubations to reestablish resting release. During incubations, the cells were maintained in at 37° C. After each incubation, the buffer was removed to measure the amount of CGRP using RIAs. […] Total content is determined by adding the total amount released in all incubations to the amount remaining in the cells. The release data is calculated as a percentage of the total peptide content in the cells. Because CGRP was measured by RIA, results are expressed as CGRP-like immunoreactivity (iCGRP). […]
# EXAMPLE. […] Basal levels of CGRP without induction and cumulative total basal are both monitored, indicating correct functioning of the assay.
# [3] = test system: DRG cells; test: FACS apoptosis assay in cisplatin treated DRG cells; assay type: cell-based; settings: cisplatin 50 μM, E3330 50 μM co-treatment, 3 days
# Protocol: EXAMPLE. DRG cells are treated with cisplatin (50 μM), with and without co-treatment with E3330 (50 μM), for 3 days. The cells are evaluated by FACS assay and compared to control.
# [4] = test system: cisplatin treated neuronal cells; test: Trypan blue cell survival following cisplatin treatment; assay type: cell-based, rat; settings: E3330 20 μM; cisplatin 0-100 mM; trypan blue on days 11, 12, 13
# Description: EXAMPLE. Assay Methods. Sensory neuronal cultures grown on Lab-Tek microscope chamber slides were processed for immunofluorescence as previously published using a peripherin antibody (1:500) and HA antibody (1:500)[28]. Images were collected in red (peripherin), green (HA), and bright-field modes. A Zeiss LSM offline browser (R4.0: Carl Zeiss Inc.; Thornwood, N.Y.) was used to determine co-localization of peripherin and HA. For trypan blue exculsion, equal volume of 0.4% (w/v) Trypan blue to cell suspension were combined, mixed and scored under phase contrast microscope. Dead cells were those that take up the trypan blue and stain blue, whereas the live cells have yellow nuclei.
# Referring to FIG. 2, cells were harvested on day 1. The corresponding siRNA (100 nM) was added on day 3, and removed on day 5. E3330 (20 μM) was dosed on day 7 and remained in the cultures for 2 days. E3330 (20 μM) and/or cisplatin ([…]) are each dosed day 10 with fresh media. Trypan blue assay is performed on days 11, 12, and 13. CGRP release assay is performed on day 11. N=3, *p<0.05.
compound,measurement,setting,value
CCCCCCCCC/C(=C\C1=C(C)C(=O)C(OC)=C(OC)C1=O)C(=O)O [Example 28],cell viability (effect on IR-induced cell death),"[1]; 20 μM E3330, 3 days prior to and throughout 3 days of radiation (10 Gy/day), 24 h after last dose",effectively blocks IR's effects
same,cell viability,"[1]; male, Sprague-Dawley, rat, 20 μM",51±3%
same,"cell viability (% cells surviving, trypan blue exclusion)","[1]; male, Sprague-Dawley, rat, 6 days, 10 μM",81±3%
same,total content CGRP,[2]; FIG. 3(B),no statistical significance difference
same,capsaicin-induced CGRP release from DRG cells after cisplatin,[2]; capsaicin 30 nM,recovery of CGRP release
same,apoptosis arising from cisplatin treatment,[3],decrease apoptosis
same,cell death in cisplatin treated neuronal cells,[4],attenuate cell death
